Data on four compounds can be found in patent US4952580A, “Pesticidal polyhaloalkene derivatives” (priority 1988, dated 1990).

Test [1] has as its system root-knot nematode (Meloidogyne incognita). As to the kind of experiment: Initial Root-Knot Nematicidal Activity. As to conditions: 336 h, read-out: Percent Control; for pest or weed control at 0.313 ppm: Table 2, Application Rate 0.313 ppm; for pest or weed control at 5 ppm: Table 2, Application Rate 5.0 ppm; for pest or weed control at 10 ppm: Table 2, Application Rate 10.0 ppm. It is filed as in vivo. The essentials:
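Compound incorporated into Meloidogyne incognita-infested soil at 10 ppm to 0.078 ppm, then planted with tomato or cucumber seedlings. Root galling scored two weeks after planting as a knot index and converted to percent control, given as averages.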

The test system of test [2] is root-knot nematode. As to the kind of experiment: Residual Root-Knot Nematicidal Activity. The format is in vivo, Meloidogyne incognita. As to conditions: read-out: Percent Control. The essentials: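 Soil received 5% dust formulation at 5 and 10 ppm test compound and was held in a greenhouse, then infested with root-knot nematode eggs and larvae at 1, 2 and 4 weeks post-treatment. Cucumber or tomato seedlings were planted and scored about two weeks after infestation for Knot Index and Percent Control.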

For a further test, the system named is stunt nematode. As to the kind of experiment: Stunt Nematode Test. The format is in vivo. As to conditions: 672 h, read-out: Percent Control; for pest or weed control at 5 ppm: rate 5 ppm.
The subject of another test is lesion nematode. Kind of test: Lesion Nematode Test. It is filed as in vivo. As to conditions: read-out: Percent Control. The essentials: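 Run as the stunt nematode test but on pea seedlings; compounds applied as dust formulations (initial and residual activity) or acetone/water formulations (systemic activity), with untreated samples as reference. Percent control derived by formula.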

For another test, the system named is cyst nematode. As to the kind of experiment: Cyst Nematode Test. As to conditions: read-out: Percent Control. It is filed as in vivo. As for the experimental part: Compounds of this invention were tested as follows for nematicidal and anthelmintic activity as dust formulations (initial and residual activity) and as acetone/water formulations (systemic activity). The formulations are described above.
The procedures was substantially the same as described in the stunt nematode test except soybean seedlings were used. "Percent Control" (Table 6 appended) is as defined in the stunt nematode test results.

The subject of test [3] is root-knot nematode. Kind of test: Soil Mobility against root-knot nematode. The format is in vivo, Meloidogyne incognita. The settings on record: 336 h; for pest or weed control at 0.313 ppm: Table 7, 0.313 ppm; for pest or weed control at 0.625 ppm: Table 7, 0.625 ppm; for pest or weed control at 1.25 ppm: Table 7, 1.25 ppm; for pest or weed control at 2.5 ppm: Table 7, 2.5 ppm; for pest or weed control at 10 ppm: Table 7, 10 ppm. The essentials: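 Soil mobility of the nematicidal test material was evaluated by placing treated, nematode-infested soil in 8 cm plastic pots stacked above two or more pots of untreated infested soil, each containing a 10 cm^3 sand layer and filter paper discs. Fifteen cm of water was dripped through, pots drained 16-18 hours, then were planted with cucumber or tomato seedlings and scored for Percent Control.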

Another test deals with Caenorhabditis elegans. As to the kind of experiment: C. Elegans Nematode Screening Test and Evaluation (in-vitro). The settings on record: Caenorhabditis elegans. The essentials: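 Worms (10-15 per well) in buffer with E. coli food, ampicillin and mycostatin; compound added in DMSO, 2-3 replicates per rate. Incubated 5-6 days at 20° C. Population development scored against untreated wells, noting effects such as reduced egg hatch or molting disruption.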

The mark [4] stands for this setting: Table 2, Application Rate 0.625 ppm.
Where [5] appears, read: Table 2, Application Rate 1.25 ppm.
[6] abbreviates: Table 2, Application Rate 2.5 ppm.
Where [7] appears, read: 168 h, Table 3, 5 ppm, inoculation 1 week after treatment.
Where [8] appears, read: 168 h, Table 3, inoculation 1 week after treatment.
Where [9] appears, read: 336 h, Table 3, 5 ppm, inoculation 2 weeks after treatment.
[10] abbreviates: 672 h, Table 3, 5 ppm, inoculation 4 weeks after treatment.
[11] abbreviates: Bottom container, read-out: Percent Control.
Where [12] appears, read: Middle container, read-out: Percent Control.
[13] abbreviates: Top container, read-out: Percent Control.
Setting [14] is: Table 7, 30 ppm, Bottom container, read-out: Percent Control.
Setting [15] is: Table 7, 30 ppm, Top container, read-out: Percent Control.
Where [16] appears, read: read-out: Percent Control, Table 7, 30 ppm, Middle container.
Where [17] appears, read: Table 9 screen, 5 ppm, read-out: Percent Mortality.

Each structure is given as a SMILES string. Read-outs that look alike come from different tables or passages of the source.

`FC(F)=C(F)CCSC1=NCCS1` [Compound 1, 2-(3,4,4-trifluoro-3-butenylthio)-4,5-dihydrothiazole]: in test [1] (Table 2, Application Rate 0.078 ppm), the pest or weed control at 0.078 ppm was 56%. The pest or weed control at 0.313 ppm was 99% in test [1], 25% in the test on root-knot nematode [3] (setting [11]), 75% with root-knot nematode [3] (setting [12]) and 77% in the test on root-knot nematode [3] (setting [13]). Further, the pest or weed control at 0.625 ppm in test [1] (setting [4]) worked out at 100%; with root-knot nematode [3] (setting [11]), 77%; in the test on root-knot nematode [3] (setting [12]), 98%; with root-knot nematode [3] (setting [13]) it was 97%. The pest or weed control at 1.25 ppm was 99% in test [1] (setting [5]), 96% in the test on root-knot nematode [3] (setting [11]), 99% with root-knot nematode [3] (setting [12]) and 100% with root-knot nematode [3] (setting [13]). Besides, the pest or weed control at 2.5 ppm in test [1] (setting [6]) was found to be 99%; in the test on lesion nematode (Table 5, rate 2.5 ppm) it was 0%; in the test on root-knot nematode [3] (setting [11]), 100%; with root-knot nematode [3] (setting [12]), 100%; in the test on root-knot nematode [3] (setting [13]) it was 100%. In addition, the pest or weed control at 5 ppm in test [1] is 99%; in the test on root-knot nematode [2] (setting [7]) it was 99%; in the test with root-knot nematode [2] (setting [9]), 63%; with root-knot nematode [2] (setting [10]) it was 25%; with stunt nematode (Table 4), 30%; with cyst nematode (Table 6, rate 5 ppm) it was 94%. For the same compound, the pest or weed control at 5 ppm amounted to 79% with cyst nematode (Table 6, rate 5 ppm, whole cysts rather than homogenized cysts); 99% in the test on root-knot nematode [3] (Table 7, 5 ppm, Bottom container, read-out: Percent Control); 98% in the test with root-knot nematode [3] (Table 7, 5 ppm, Middle container, read-out: Percent Control); 100% in the test with root-knot nematode [3] (Table 7, 5 ppm, Top container, read-out: Percent Control). In addition, the pest or weed control at 10 ppm in test [1] was determined as 100%; in the test with root-knot nematode [2] (setting [8]) it was 98%; with stunt nematode (Table 4, rate 10 ppm) it was 61%; in the test with root-knot nematode [3] (container 1 (Top), read-out: Percent Control), 100%; in the test on root-knot nematode [3] (container 2, read-out: Percent Control) it was 100%; in the test with root-knot nematode [3] (container 3, read-out: Percent Control), 100%. Moreover, the pest or weed control at 10 ppm in the test on root-knot nematode [3] (container 4, read-out: Percent Control) was determined as 99%; in the test with root-knot nematode [3] (container 5, read-out: Percent Control), 97%; in the test with root-knot nematode [3] (container 6 (Bottom), read-out: Percent Control), 42%. Besides, the pest or weed control at 0.156 ppm in test [1] turned out to be 95%. Moreover, the pest or weed control at 30 ppm in the test with root-knot nematode [3] (setting [14]) was 85%; in the test with root-knot nematode [3] (setting [15]) it was 97%; in the test with root-knot nematode [3] (setting [16]), 95%.

Regarding `CSc1nnc(SCCC(F)=C(F)F)s1` [Compound 2, 2-methylthio-5-(3,4,4-trifluoro-3-butenylthio)-1,3,4-thiadiazole], in test [1], the pest or weed control at 0.313 ppm stood at 38%. Moreover, the pest or weed control at 0.625 ppm in test [1] (setting [4]) was found to be 84%. Besides, the pest or weed control at 1.25 ppm in test [1] (setting [5]) stood at 86%. Moreover, the values for the pest or weed control at 2.5 ppm in test [1] (setting [6]) and in test [1] were 96% and 95%, respectively. In addition, the pest or weed control at 5 ppm in test [1] is 96%; in the test with root-knot nematode [2] (setting [7]), 98%; in the test on root-knot nematode [2] (setting [9]) it was 38%; in the test with root-knot nematode [2] (setting [10]), 42%; in the test with stunt nematode (Table 4), 72%; in the test on lesion nematode (Table 5, rate 5 ppm) it was 0%. For the same compound, in the test on cyst nematode (Table 6, rate 5 ppm), the pest or weed control at 5 ppm is 70%. Also, the pest or weed control at 10 ppm in test [1] is 100%; with root-knot nematode [2] (setting [8]), 77%; with root-knot nematode [2] (336 h, Table 3, inoculation 2 weeks after treatment) it was 56%; with root-knot nematode [2] (672 h, Table 3, inoculation 4 weeks after treatment), 69%. In addition, the pest or weed control at 30 ppm with root-knot nematode [3] (setting [14]) was 25%; with root-knot nematode [3] (setting [15]) it was 42%; in the test on root-knot nematode [3] (setting [16]), 33%.

For the compound `FC(F)=C(F)CCSc1nsc(SCCC(F)=C(F)F)n1` [Compound 25, 3,5-di(3,4,4-trifluoro-3-butenylthio)-1,2,4-thiadiazole], the pest or weed control at 0.312 ppm in test [1] (Table 2, Application Rate 0.312 ppm) worked out at 78%. In test [1] (setting [4]), the pest or weed control at 0.625 ppm amounted to 97%. In addition, in test [1] (setting [5]), the pest or weed control at 1.25 ppm came to 97%. For the same compound, the pest or weed control at 2.5 ppm in test [1] (setting [6]) was determined as 99%; with lesion nematode (Table 5, rate 2.5 ppm), 77%. In addition, the pest or weed control at 5 ppm turned out to be 100% in the test on root-knot nematode [2] (168 h, Table 3a, 5% dust, 5 ppm, inoculation 1 week post-treatment); 97% in the test on root-knot nematode [2] (336 h, Table 3a, 5% dust, 5 ppm, inoculation 2 weeks post-treatment); 98% with root-knot nematode [2] (672 h, Table 3a, 5% dust, 5 ppm, inoculation 4 weeks post-treatment); 83% in the test on cyst nematode (Table 6, rate 5 ppm); 8% in the test with root-knot nematode [3] (Table 7a, 5% dust, 5 ppm, BOTTOM container, read-out: Percent Control); 69% in the test on root-knot nematode [3] (Table 7a, 5% dust, 5 ppm, MIDDLE container, read-out: Percent Control). Moreover, the pest or weed control at 5 ppm in the test with root-knot nematode [3] (Table 7a, 5% dust, 5 ppm, TOP container, read-out: Percent Control) was determined as 100%. Further, the inhibition – broadly, how much of the control response was suppressed – at 5 ppm with Caenorhabditis elegans (Table 9 screen, 5 ppm, read-out: Percent Inhibition of Reproduction) was found to be 100%. For the same compound, the mortality (in general, the share of the test organisms that died) at 5 ppm with Caenorhabditis elegans (setting [17]) turned out to be 75%; in the test with Caenorhabditis elegans (Table 10 evaluation, 5 ppm, read-out: Percent Mortality), 100%. For the same compound, the inhibition at 1.25 ppm in the test on Caenorhabditis elegans (Table 10 evaluation, 1.25 ppm, read-out: Percent Inhibition of Reproduction) was found to be 17%. The mortality at 1.25 ppm in the test on Caenorhabditis elegans (Table 10 evaluation, 1.25 ppm, read-out: Percent Mortality) is 0%. Further, in the test with Caenorhabditis elegans (Table 10 evaluation, 2.5 ppm, read-out: Percent Inhibition of Reproduction), the inhibition at 2.5 ppm is 58%. Besides, the mortality at 2.5 ppm with Caenorhabditis elegans (Table 10 evaluation, 2.5 ppm, read-out: Percent Mortality) turned out to be 0%.

For `FCCSc1nnc(SCCC(F)=C(F)F)s1` [Compound 27, 2-(2-fluoroethylthio)-5-(3,4,4-trifluoro-3-butenylthio)-1,3,4-thiadiazole], the pest or weed control at 0.312 ppm in test [1] turned out to be 31%. Moreover, in test [1], the pest or weed control at 0.625 ppm was 79%. Further, the pest or weed control at 1.25 ppm in test [1] was determined as 99%. The pest or weed control at 2.5 ppm in test [1] amounted to 100%; in the test with lesion nematode, 63%. In addition, the pest or weed control at 5 ppm was found to be 99% in the test on root-knot nematode [2] (168 h); 97% in the test with root-knot nematode [2] (336 h); 99% in the test with root-knot nematode [2] (672 h); 62% with stunt nematode (Table 4a); 57% in the test on cyst nematode; 100% in the test on root-knot nematode [3] (read-out: Percent Control, Table 7a, 5% dust, 5 ppm, BOTTOM container). The pest or weed control at 5 ppm in the test with root-knot nematode [3] (read-out: Percent Control, Table 7a, 5% dust, 5 ppm, MIDDLE container) came to 100%; in the test on root-knot nematode [3] (read-out: Percent Control, Table 7a, 5% dust, 5 ppm, TOP container), 99%. For the same compound, in the test on Caenorhabditis elegans (setting [17]), the mortality at 5 ppm was found to be 0%. In the test with Caenorhabditis elegans (read-out: Percent Inhibition of Reproduction), the inhibition at 5 ppm worked out at 38%.
